In the NIST ThermoML archive (doi:10.1021/je500431h):

Conditions: 101 kPa, Liquid; for electrical conductivity: conductivity meter LF 340 and a standard conductivity cell TetraCon; for mass density: Pycnometric method

C=CCn1cc[n+](CCOC)c1.O=S(=O)([N-]S(=O)(=O)C(F)(F)F)C(F)(F)F
Conditions | electrical conductivity [S/m] | mass density [kg/m3] | viscosity [mPa·s]
308.7 K | 0.546 | – | –
309 K | – | 1437 | 23.7
313.3 K | 0.627 | – | –
314 K | – | 1432.3 | 20.3
317 K | – | 1429.6 | 17.8
318.1 K | 0.72 | – | –
323.3 K | 0.828 | – | –
323.5 K | – | 1423.5 | 14.6
327.9 K | 0.935 | – | –
328 K | – | 1419.4 | 13.1
332.9 K | 1.06 | – | –
334 K | – | 1413.9 | 11.2
337.6 K | 1.18 | – | –
338.5 K | – | 1409.9 | 10
343 K | 1.33 | – | –
344 K | – | 1404.9 | 8.8
348 K | – | 1401.3 | 8.2
348.1 K | 1.48 | – | –
352 K | 1.6 | – | –
354.2 K | – | 1395.8 | 7
